Results: ChEMBL document CHEMBL1201862, “PubChem BioAssay data set” (2004)
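Each compound was tested at five concentrations against cells in 96-well plates for 48 hours. Abbreviation: GI50, concentration required for 50% inhibition of growth.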 Activity calls are given as the source filed them. Rule as the data show it: active = GI50 up to about 1.1 µM and inactive = higher.

Key:
Test in all cases: NCI-60 cell line screen, 48 h
HL-60 = tested on: HL-60
ACHN = tested on: ACHN
HOP-62 = tested on: HOP-62
OVCAR-3 = tested on: OVCAR-3
OVCAR-8 = tested on: OVCAR-8
786-0 = tested on: 786-0
SF-539 = tested on: SF-539
HCT-116 = tested on: HCT-116
EKVX = tested on: EKVX
SNB-19 = tested on: SNB-19
K562 = tested on: K562
NCI-H226 = tested on: NCI-H226
UACC-257 = tested on: UACC-257
OVCAR-5 = tested on: OVCAR-5
RPMI-8226 = tested on: RPMI-8226
HOP-92 = tested on: HOP-92
CAKI-1 = tested on: CAKI-1
OVCAR-4 = tested on: OVCAR-4

Measured: GI50

CC(C)(C)C1CCN(C(=O)c2ccccc2)CC1
inactive: HL-60 32.9 µM | ACHN > 100 µM | HOP-62 > 100 µM | OVCAR-3 36.8 µM | OVCAR-8 > 100 µM | 786-0 > 100 µM | SF-539 > 100 µM | HCT-116 53.8 µM | EKVX > 100 µM | SNB-19 > 100 µM | K562 63.4 µM | NCI-H226 > 100 µM | UACC-257 41.1 µM | OVCAR-5 > 100 µM | RPMI-8226 46 µM

O=C1NC(=O)C(=O)C(c2nc3ccccc3s2)C1=O
inactive: HL-60 > 100 µM | HOP-92 > 100 µM | ACHN > 100 µM | HOP-62 > 100 µM | CAKI-1 > 100 µM | OVCAR-3 > 100 µM | OVCAR-8 > 100 µM | 786-0 > 100 µM | SF-539 > 100 µM | HCT-116 > 100 µM | EKVX > 100 µM | SNB-19 > 100 µM | NCI-H226 > 100 µM | UACC-257 > 100 µM | OVCAR-4 > 100 µM

NC(=O)OCC(COc1ccc(Cl)cc1)OC(=O)c1ccccc1Cl (configuration not stated)
inactive: HL-60 21.9 µM | HOP-92 17.1 µM | ACHN 31.6 µM | HOP-62 20.9 µM | CAKI-1 26.5 µM | OVCAR-3 20.3 µM | OVCAR-8 23.4 µM | 786-0 19.4 µM | SF-539 19.1 µM | HCT-116 17 µM | EKVX 25.4 µM | SNB-19 28.1 µM | K562 20.7 µM | NCI-H226 25.1 µM | UACC-257 19 µM | OVCAR-5 20.6 µM | RPMI-8226 21.8 µM

O=S(=O)(O)c1cc(S(=O)(=O)O)c2cc(/N=N/c3ccc(/N=N/c4ccc(/C=C/c5ccc(/N=[N+](/[O-])c6ccc(/C=C/c7ccc(/N=N/c8ccc(/N=N/c9ccc%10cc(S(=O)(=O)O)cc(S(=O)(=O)O)c%10c9)cc8)cc7S(=O)(=O)O)c(S(=O)(=O)O)c6)cc5S(=O)(=O)O)c(S(=O)(=O)O)c4)cc3)ccc2c1
inactive: HL-60 54.1 µM | HOP-92 > 58.5 µM | HOP-62 > 100 µM | OVCAR-3 > 31.6 µM | OVCAR-8 > 78.7 µM | SF-539 > 59 µM | HCT-116 > 28.6 µM | EKVX 82.6 µM | SNB-19 25.9 µM | K562 > 100 µM | NCI-H226 > 50.5 µM | UACC-257 > 60.3 µM | OVCAR-5 > 79.3 µM | OVCAR-4 > 48.1 µM | RPMI-8226 46.5 µM

NC(=O)CCC(Nc1c2ccccc2[n+]([O-])c2ccccc12)C(=O)O (configuration not stated)
inactive: HL-60 11.1 µM | ACHN 36.6 µM | HOP-62 > 100 µM | OVCAR-3 60.1 µM | OVCAR-8 63 µM | 786-0 > 100 µM | HCT-116 38.3 µM | EKVX > 100 µM | SNB-19 77.1 µM | K562 37.8 µM | NCI-H226 64.6 µM | OVCAR-5 > 100 µM | OVCAR-4 84.1 µM | RPMI-8226 18.6 µM

O=C(O)CCC1c2[nH]c3ccccc3c2CCN1Cc1ccccc1 (configuration not stated)
inactive: HL-60 > 100 µM | HOP-92 > 100 µM | ACHN > 100 µM | CAKI-1 > 100 µM | OVCAR-3 > 100 µM | OVCAR-8 > 100 µM | 786-0 > 100 µM | SF-539 > 100 µM | HCT-116 > 100 µM | EKVX > 100 µM | SNB-19 > 100 µM | K562 > 100 µM | NCI-H226 > 100 µM | UACC-257 > 100 µM | OVCAR-5 > 100 µM | OVCAR-4 > 100 µM

CC12CCC3(OCCO3)C(OC(=O)c3ccccc3)=C1CCC21OCCO1 (configuration not stated)
inactive: HL-60 > 100 µM | HOP-92 > 100 µM | ACHN > 100 µM | HOP-62 > 100 µM | CAKI-1 > 100 µM | OVCAR-3 > 100 µM | OVCAR-8 > 100 µM | 786-0 > 100 µM | SF-539 > 100 µM | HCT-116 > 100 µM | EKVX > 100 µM | SNB-19 > 100 µM | NCI-H226 4.7 µM | UACC-257 > 100 µM | OVCAR-5 > 100 µM | OVCAR-4 > 100 µM | RPMI-8226 71.3 µM

O=C(O)CCSC(=O)Nc1ccccc1F
inactive: HL-60 > 100 µM | ACHN > 100 µM | HOP-62 > 100 µM | CAKI-1 > 100 µM | OVCAR-3 > 100 µM | 786-0 > 100 µM | SF-539 > 100 µM | HCT-116 > 100 µM | EKVX > 100 µM | SNB-19 > 100 µM | K562 > 100 µM | NCI-H226 > 100 µM | OVCAR-5 > 100 µM | OVCAR-4 > 100 µM | RPMI-8226 > 100 µM

COc1ccc2oc(C(=O)O)c3c2c1CCC3
inactive: HL-60 > 100 µM | HOP-92 42.5 µM | ACHN > 100 µM | HOP-62 > 100 µM | CAKI-1 > 100 µM | OVCAR-3 > 100 µM | OVCAR-8 > 100 µM | 786-0 > 100 µM | SF-539 > 100 µM | HCT-116 > 100 µM | EKVX > 100 µM | SNB-19 > 100 µM | K562 > 100 µM | UACC-257 > 100 µM | OVCAR-4 > 100 µM | RPMI-8226 > 100 µM

CCCCCCCCC1C(C)c2c([nH]c3ccccc23)C2C(=O)N(c3ccccc3)C(=O)C21 (configuration not stated)
inactive: HL-60 3.27 µM | ACHN 11.5 µM | HOP-62 21 µM | CAKI-1 14 µM | OVCAR-3 5.08 µM | OVCAR-8 11.1 µM | 786-0 13.1 µM | SF-539 17.3 µM | HCT-116 3.27 µM | EKVX 21.1 µM | K562 3.9 µM | NCI-H226 11.8 µM | UACC-257 > 10 µM | OVCAR-5 18.3 µM | OVCAR-4 4.3 µM | RPMI-8226 3.4 µM

CC(C)(C)[C@H]1CC[C@@](O)(c2ccccc2)CC1.CC(C)(C)[C@H]1CC[C@](O)(c2ccccc2)CC1
inactive: HL-60 16.3 µM | ACHN 20 µM | HOP-62 26.7 µM | OVCAR-3 17.2 µM | OVCAR-8 18.7 µM | 786-0 18 µM | SF-539 18.1 µM | HCT-116 22.2 µM | EKVX 23.1 µM | SNB-19 25.2 µM | K562 15.2 µM | NCI-H226 11.6 µM | UACC-257 22.2 µM | OVCAR-5 44.7 µM | RPMI-8226 21.1 µM

O=c1/c(=C/c2cccc([N+](=O)[O-])c2)sc2nc3ccccc3n12
inactive: HL-60 > 100 µM | HOP-92 > 10 µM | ACHN 84.7 µM | HOP-62 > 100 µM | CAKI-1 > 10 µM | OVCAR-3 > 10 µM | OVCAR-8 > 100 µM | 786-0 > 100 µM | HCT-116 37.3 µM | EKVX 58.7 µM | SNB-19 > 10 µM | K562 > 100 µM | NCI-H226 > 100 µM | UACC-257 4.71 µM | OVCAR-5 > 100 µM | OVCAR-4 52.4 µM
